Test results published in PubChem BioAssay AID1963834 (Molecular Pharmacology Branch, DTP, NCI, 2024).

System: 873145-292-R-J1-PDC complex spheroid viability
Experiment: Anticancer human tumor 873145-292-R-J1-PDC patient-derived renal clear cell carcinoma cell line growth inhibition [POLQ]
Details: for IC50: curve of first compound; for viability, T/C: stronger effect = lower value
Method in brief: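 Growth inhibition in 3D: complex spheroids (tumor PDC, HUVEC, MSC) treated with POLQ inhibitor combinations; where Cmax unknown, highest tested concentration 10 microM, except SN-38 at 1 microM.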

[1] = second compound 0.0316 µM, first compound 0.0316 µM
[2] = second compound 0.0316 µM, first compound 0.1 µM
[3] = second compound 0.0316 µM, first compound 0.316 µM
[4] = second compound 0.0316 µM, first compound 1 µM
[5] = second compound 0.0316 µM, first compound 3.16 µM
[6] = second compound 0.0316 µM, first compound 10 µM
[7] = second compound 0.1 µM, first compound 0.0316 µM
[8] = second compound 0.1 µM, first compound 0.1 µM
[9] = second compound 0.1 µM, first compound 0.316 µM
[10] = second compound 0.1 µM, first compound 1 µM
[11] = second compound 0.1 µM, first compound 3.16 µM
[12] = second compound 0.1 µM, first compound 10 µM
[13] = second compound 0.316 µM, first compound 0.0316 µM
[14] = second compound 0.316 µM, first compound 0.1 µM
[15] = second compound 0.316 µM, first compound 0.316 µM
[16] = second compound 0.316 µM, first compound 1 µM
[17] = second compound 0.316 µM, first compound 3.16 µM
[18] = second compound 0.316 µM, first compound 10 µM
[19] = second compound 1 µM, first compound 0.0316 µM
[20] = second compound 1 µM, first compound 0.1 µM
[21] = second compound 1 µM, first compound 0.316 µM
[22] = second compound 1 µM, first compound 1 µM
[23] = second compound 1 µM, first compound 3.16 µM
[24] = second compound 1 µM, first compound 10 µM
[25] = second compound 3.16 µM, first compound 0.0316 µM
[26] = second compound 3.16 µM, first compound 0.1 µM
[27] = second compound 3.16 µM, first compound 0.316 µM
[28] = second compound 3.16 µM, first compound 1 µM
[29] = second compound 3.16 µM, first compound 3.16 µM
[30] = second compound 3.16 µM, first compound 10 µM
[31] = second compound 10 µM, first compound 0.0316 µM
[32] = second compound 10 µM, first compound 0.1 µM
[33] = second compound 10 µM, first compound 0.316 µM
[34] = second compound 10 µM, first compound 1 µM
[35] = second compound 10 µM, first compound 3.16 µM
[36] = second compound 10 µM, first compound 10 µM
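Note: spheroids exposed to compounds for 7 days before viability readout.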
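Throughout, for viability, T/C: luminescence signal used as surrogate for viable cell content; 100% = DMSO vehicle control viability.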

With `COc1ccc([C@@H](O)c2cc(-c3ncnc4cc(N5CCOCC5)ccc34)c(F)cc2Cl)nn1` + Nc1ccc(C#CCN(C(=O)Cc2ncc(C(F)(F)F)cc2C(F)(F)F)c2ccc(F)cc2)nn1 the IC50 (second compound 0.0316 µM) was 4.69 µM, the IC50 (second compound 0.1 µM) was 5.13 µM and the IC50 (second compound 0.316 µM) was 5.16 µM. The IC50 (second compound 1 µM) was 6.14 µM, the IC50 (second compound 3.16 µM) was 5.93 µM and the IC50 (second compound 10 µM) was > 10 µM. For the same molecule, the viability, T/C [1] was 102%, the viability, T/C [2] was 91.9% and the viability, T/C [3] was 86.2%. The viability, T/C [4] was 64.2%, the viability, T/C [5] was 54.1% and the viability, T/C [6] was 44.4%. It also gave a viability, T/C [7] of 92.8%, a viability, T/C [8] of 91.4% and a viability, T/C [9] of 82.9%. For the same molecule, the viability, T/C [10] was 64.9%, the viability, T/C [11] was 58.1% and the viability, T/C [12] was 42.2%. It also gave a viability, T/C [13] of 90.8%, a viability, T/C [14] of 114% and a viability, T/C [15] of 76.1%. For the same molecule, the viability, T/C [16] was 67.3%, the viability, T/C [17] was 60.7% and the viability, T/C [18] was 41.1%. The viability, T/C [19] was 92.4%, the viability, T/C [20] was 85.4% and the viability, T/C [21] was 92.1%. The viability, T/C [22] was 78.6%, the viability, T/C [23] was 59.8% and the viability, T/C [24] was 43%. The viability, T/C [25] was 99.5%, the viability, T/C [26] was 93.6% and the viability, T/C [27] was 81.4%. It also gave a viability, T/C [28] of 74%, a viability, T/C [29] of 51% and a viability, T/C [30] of 47.3%. For the same molecule, the viability, T/C [31] was 104%, the viability, T/C [32] was 105% and the viability, T/C [33] was 86.5%. The viability, T/C [34] was 81%, the viability, T/C [35] was 60% and the viability, T/C [36] was 53.6%.
With `CC1COCCN1c1cc(C2(S(C)(=N)=O)CC2)nc(-c2ccnc3[nH]ccc23)n1` (stereo unspecified) + Nc1ccc(C#CCN(C(=O)Cc2ncc(C(F)(F)F)cc2C(F)(F)F)c2ccc(F)cc2)nn1 the IC50 (second compound 0.0316 µM) was > 10 µM, the IC50 (second compound 0.1 µM) was > 10 µM and the IC50 (second compound 0.316 µM) was > 10 µM. The IC50 (second compound 1 µM) was > 10 µM, the IC50 (second compound 3.16 µM) was > 10 µM and the IC50 (second compound 10 µM) was > 10 µM. The viability, T/C [1] was 103%, the viability, T/C [2] was 99.2% and the viability, T/C [3] was 102%. The viability, T/C [4] was 80.5%, the viability, T/C [5] was 73.9% and the viability, T/C [6] was 71%. For the same molecule, the viability, T/C [7] was 107%, the viability, T/C [8] was 98.4% and the viability, T/C [9] was 82%. For the same molecule, the viability, T/C [10] was 83.3%, the viability, T/C [11] was 88.9% and the viability, T/C [12] was 67.8%. For the same molecule, the viability, T/C [13] was 102%, the viability, T/C [14] was 92.8% and the viability, T/C [15] was 84.7%. The viability, T/C [16] was 92.3%, the viability, T/C [17] was 78.2% and the viability, T/C [18] was 69.6%. It also gave a viability, T/C [19] of 90.7%, a viability, T/C [20] of 90% and a viability, T/C [21] of 90.8%. It also gave a viability, T/C [22] of 88.5%, a viability, T/C [23] of 80.2% and a viability, T/C [24] of 64.4%. For the same molecule, the viability, T/C [25] was 92.2%, the viability, T/C [26] was 97.1% and the viability, T/C [27] was 101%. The viability, T/C [28] was 82.8%, the viability, T/C [29] was 82% and the viability, T/C [30] was 73.2%. It also gave a viability, T/C [31] of 105%, a viability, T/C [32] of 106% and a viability, T/C [33] of 103%. The viability, T/C [34] was 110%, the viability, T/C [35] was 85.5% and the viability, T/C [36] was 81.3%.
In the case of `CCc1cc2c(N3CCc4c(cc(Cn5ccnc5)cc4-c4cn(C)nc4C(F)(F)F)C3=O)ccnc2c(OC)n1` + Nc1ccc(C#CCN(C(=O)Cc2ncc(C(F)(F)F)cc2C(F)(F)F)c2ccc(F)cc2)nn1, the IC50 (second compound 0.0316 µM) is reported as > 10 µM, the IC50 (second compound 0.1 µM) is reported as > 10 µM and the IC50 (second compound 0.316 µM) is reported as > 10 µM. For the same molecule, the IC50 (second compound 1 µM) was > 10 µM, the IC50 (second compound 3.16 µM) was > 10 µM and the IC50 (second compound 10 µM) was > 10 µM. It also gave a viability, T/C [1] of 97.9%, a viability, T/C [2] of 106% and a viability, T/C [3] of 87.8%. The viability, T/C [4] was 89.5%, the viability, T/C [5] was 81.3% and the viability, T/C [6] was 80.9%. The viability, T/C [7] was 98.7%, the viability, T/C [8] was 110% and the viability, T/C [9] was 82.9%. The viability, T/C [10] was 92.8%, the viability, T/C [11] was 102% and the viability, T/C [12] was 69.5%. It also gave a viability, T/C [13] of 101%, a viability, T/C [14] of 111% and a viability, T/C [15] of 82.3%. The viability, T/C [16] was 82.5%, the viability, T/C [17] was 101% and the viability, T/C [18] was 70.8%. The viability, T/C [19] was 92.7%, the viability, T/C [20] was 89.5% and the viability, T/C [21] was 79.6%. The viability, T/C [22] was 87.6%, the viability, T/C [23] was 94.3% and the viability, T/C [24] was 72.2%. For the same molecule, the viability, T/C [25] was 99.8%, the viability, T/C [26] was 96.7% and the viability, T/C [27] was 82.2%. For the same molecule, the viability, T/C [28] was 99.6%, the viability, T/C [29] was 80.9% and the viability, T/C [30] was 74.1%. The viability, T/C [31] was 106%, the viability, T/C [32] was 96.5% and the viability, T/C [33] was 97.8%. It also gave a viability, T/C [34] of 104%, a viability, T/C [35] of 84.9% and a viability, T/C [36] of 77.7%.
